Data taken from the supplement of paper PMC10307832.

Columns and labels:
Assay in all cases: relative viability (nuclei count vs DMSO), 5 days (fraction); higher = more cells survive
[1] = compound: COc1cc(Nc2ncc(F)c(Nc3ccc4c(n3)NC(=O)C(C)(C)O4)n2)cc(OC)c1OC [R406] + Cc1nc(NC(=O)N2CCC[C@H]2C(N)=O)sc1-c1ccnc(C(C)(C)C(F)(F)F)c1 [Alpelisib] (partner 2 µM)
Summary of the method: (§1)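 Values are medians from duplicate plates. Each reflects relative viability, defined as the nuclei count of treated wells over that of vehicle wells. Lung cancer cell lines in 1536-well plates were pin-tool dosed one day after seeding with one drug alone or with a fixed anchor-drug dose plus five library-drug doses (not always all listed) in √10 steps, then fixed, stained and imaged at 4× after 5 days.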

[2] = compound: O=C(/C=C/c1cccnc1)NCCCCC1CCN(C(=O)c2ccccc2)CC1 [Daporinad] + CC(=O)c1c(C)c2cnc(Nc3ccc(N4CCNCC4)cn3)nc2n(C2CCCC2)c1=O [Palbociclib] (partner 0.5 µM)
Summary of the method: as §1

[3] = compound: O=C(/C=C/c1cccnc1)NCCCCC1CCN(C(=O)c2ccccc2)CC1 [Daporinad] + NC(=O)Nc1cc(-c2cccc(F)c2)sc1C(=O)N[C@H]1CCCNC1 [AZD7762] (partner 0.2 µM)
Summary of the method: as §1

[4] = compound: O=C(/C=C/c1cccnc1)NCCCCC1CCN(C(=O)c2ccccc2)CC1 [Daporinad] + CC(C)C[C@H](NC(=O)[C@H](Cc1ccccc1)NC(=O)c1cnccn1)B(O)O [Bortezomib] (partner 0.002 µM)
Summary of the method: as §1

NCI-H727
relative viability ([1]; first compound 0.08 µM): 0.56
relative viability ([1]; first compound 0.253 µM): 0.574
relative viability ([1]; first compound 0.8 µM): 0.61
relative viability ([1]; first compound 2.53 µM): 0.497
relative viability ([1]; first compound 8 µM): 0.245
relative viability ([2]; first compound 0.0005 µM): 0.694
relative viability ([2]; first compound 0.001581 µM): 0.622
relative viability ([2]; first compound 0.005 µM): 0.647
relative viability ([2]; first compound 0.01581 µM): 0.646
relative viability ([3]; first compound 0.0005 µM): 0.757
relative viability ([3]; first compound 0.001581 µM): 0.466
relative viability ([3]; first compound 0.005 µM): 0.513
relative viability ([3]; first compound 0.01581 µM): 0.439
relative viability ([4]; first compound 0.0005 µM): 0.813
relative viability ([4]; first compound 0.001581 µM): 0.798
relative viability ([4]; first compound 0.005 µM): 0.838
relative viability ([4]; first compound 0.01581 µM): 0.858

RERF-LC-KJ
relative viability ([1]; first compound 0.08 µM): 0.87
relative viability ([1]; first compound 0.253 µM): 1.07
relative viability ([1]; first compound 0.8 µM): 0.971
relative viability ([1]; first compound 2.53 µM): 0.738
relative viability ([1]; first compound 8 µM): 0.597
relative viability ([2]; first compound 0.0005 µM): 1.08
relative viability ([2]; first compound 0.001581 µM): 1.06
relative viability ([2]; first compound 0.005 µM): 1.09
relative viability ([2]; first compound 0.01581 µM): 1.07
relative viability ([3]; first compound 0.001581 µM): 1.2
relative viability ([3]; first compound 0.005 µM): 1.14
relative viability ([3]; first compound 0.01581 µM): 1.11
relative viability ([4]; first compound 0.0005 µM): 0.996
relative viability ([4]; first compound 0.001581 µM): 1.05
relative viability ([4]; first compound 0.005 µM): 1.45
relative viability ([4]; first compound 0.01581 µM): 1.26

NCI-H2342
relative viability ([2]; first compound 0.0005 µM): 0.513
relative viability ([2]; first compound 0.001581 µM): 0.506
relative viability ([2]; first compound 0.005 µM): 0.506
relative viability ([2]; first compound 0.01581 µM): 0.535
relative viability ([3]; first compound 0.0005 µM): 0.508
relative viability ([3]; first compound 0.001581 µM): 0.457
relative viability ([3]; first compound 0.005 µM): 0.612
relative viability ([3]; first compound 0.01581 µM): 0.532

Calu-6
relative viability ([1]; first compound 0.08 µM): 1.01
relative viability ([1]; first compound 0.253 µM): 1.14
relative viability ([1]; first compound 0.8 µM): 1.13
relative viability ([1]; first compound 2.53 µM): 0.66
relative viability ([1]; first compound 8 µM): 0.389
relative viability ([4]; first compound 0.0005 µM): 0.957
relative viability ([4]; first compound 0.001581 µM): 1.04
relative viability ([4]; first compound 0.005 µM): 0.848
relative viability ([4]; first compound 0.01581 µM): 0.352

LC-2-ad
relative viability ([1]; first compound 0.08 µM): 0.769
relative viability ([1]; first compound 0.253 µM): 0.802
relative viability ([1]; first compound 0.8 µM): 0.909
relative viability ([1]; first compound 2.53 µM): 0.329
relative viability ([1]; first compound 8 µM): 0.0848
relative viability ([2]; first compound 0.0005 µM): 0.463
relative viability ([2]; first compound 0.001581 µM): 0.511
relative viability ([2]; first compound 0.005 µM): 0.491
relative viability ([2]; first compound 0.01581 µM): 0.486
relative viability ([3]; first compound 0.0005 µM): 0.762
relative viability ([3]; first compound 0.001581 µM): 0.88
relative viability ([3]; first compound 0.005 µM): 0.79
relative viability ([3]; first compound 0.01581 µM): 0.964
relative viability ([4]; first compound 0.0005 µM): 0.978
relative viability ([4]; first compound 0.001581 µM): 1.07
relative viability ([4]; first compound 0.005 µM): 0.952
relative viability ([4]; first compound 0.01581 µM): 0.844

CAL-12T
relative viability ([1]; first compound 0.08 µM): 1.3
relative viability ([1]; first compound 0.253 µM): 1.54
relative viability ([1]; first compound 0.8 µM): 1.83
relative viability ([1]; first compound 2.53 µM): 1.03
relative viability ([1]; first compound 8 µM): 0.923
relative viability ([2]; first compound 0.0005 µM): 0.332
relative viability ([2]; first compound 0.001581 µM): 0.445
relative viability ([2]; first compound 0.005 µM): 0.342
relative viability ([2]; first compound 0.01581 µM): 0.143
relative viability ([3]; first compound 0.0005 µM): 0.553
relative viability ([3]; first compound 0.001581 µM): 0.528
relative viability ([3]; first compound 0.005 µM): 0.609
relative viability ([3]; first compound 0.01581 µM): 0.333
relative viability ([4]; first compound 0.0005 µM): 0.925
relative viability ([4]; first compound 0.005 µM): 0.817
relative viability ([4]; first compound 0.01581 µM): 0.392

SK-LU-1
relative viability ([1]; first compound 0.08 µM): 1.01
relative viability ([1]; first compound 0.253 µM): 0.849
relative viability ([1]; first compound 0.8 µM): 1.05
relative viability ([1]; first compound 2.53 µM): 0.368
relative viability ([1]; first compound 8 µM): 0.203
relative viability ([2]; first compound 0.0005 µM): 0.336
relative viability ([2]; first compound 0.001581 µM): 0.268
relative viability ([2]; first compound 0.005 µM): 0.423
relative viability ([2]; first compound 0.01581 µM): 0.422
relative viability ([4]; first compound 0.0005 µM): 0.921
relative viability ([4]; first compound 0.001581 µM): 1.34
relative viability ([4]; first compound 0.005 µM): 1.16
relative viability ([4]; first compound 0.01581 µM): 1.61

NCI-H1650
relative viability ([2]; first compound 0.0005 µM): 0.321
relative viability ([2]; first compound 0.001581 µM): 0.413
relative viability ([2]; first compound 0.005 µM): 0.415
relative viability ([2]; first compound 0.01581 µM): 0.334
relative viability ([4]; first compound 0.0005 µM): 0.182
relative viability ([4]; first compound 0.001581 µM): 0.222
relative viability ([4]; first compound 0.005 µM): 0.219
relative viability ([4]; first compound 0.01581 µM): 0.187

BEN
relative viability ([1]; first compound 0.08 µM): 1.08
relative viability ([1]; first compound 0.253 µM): 1.3
relative viability ([1]; first compound 0.8 µM): 1.07
relative viability ([1]; first compound 2.53 µM): 0.99
relative viability ([1]; first compound 8 µM): 0.766
relative viability ([2]; first compound 0.0005 µM): 0.528
relative viability ([2]; first compound 0.001581 µM): 0.459
relative viability ([2]; first compound 0.005 µM): 0.433
relative viability ([2]; first compound 0.01581 µM): 0.599
relative viability ([3]; first compound 0.0005 µM): 0.779
relative viability ([3]; first compound 0.001581 µM): 0.661
relative viability ([3]; first compound 0.005 µM): 0.812
relative viability ([3]; first compound 0.01581 µM): 0.824
relative viability ([4]; first compound 0.0005 µM): 0.805
relative viability ([4]; first compound 0.001581 µM): 0.796
relative viability ([4]; first compound 0.005 µM): 1.04
relative viability ([4]; first compound 0.01581 µM): 1.12

EMC-BAC-2
relative viability ([1]; first compound 0.08 µM): 0.773
relative viability ([1]; first compound 0.253 µM): 0.786
relative viability ([1]; first compound 0.8 µM): 0.801
relative viability ([1]; first compound 2.53 µM): 0.628
relative viability ([1]; first compound 8 µM): 0.384
relative viability ([2]; first compound 0.0005 µM): 0.513
relative viability ([2]; first compound 0.001581 µM): 0.546
relative viability ([2]; first compound 0.005 µM): 0.41
relative viability ([2]; first compound 0.01581 µM): 0.327
relative viability ([3]; first compound 0.0005 µM): 1.09
relative viability ([3]; first compound 0.001581 µM): 1.28
relative viability ([3]; first compound 0.005 µM): 1.02
relative viability ([3]; first compound 0.01581 µM): 0.413
relative viability ([4]; first compound 0.0005 µM): 1.22
relative viability ([4]; first compound 0.001581 µM): 1.04
relative viability ([4]; first compound 0.005 µM): 1.06
relative viability ([4]; first compound 0.01581 µM): 0.301

LU99A
relative viability ([1]; first compound 0.08 µM): 0.462
relative viability ([1]; first compound 0.253 µM): 0.468
relative viability ([1]; first compound 0.8 µM): 0.617
relative viability ([1]; first compound 8 µM): 0.193
relative viability ([2]; first compound 0.0005 µM): 0.381
relative viability ([2]; first compound 0.001581 µM): 0.414
relative viability ([2]; first compound 0.005 µM): 0.391
relative viability ([2]; first compound 0.01581 µM): 0.391
relative viability ([3]; first compound 0.0005 µM): 0.31
relative viability ([3]; first compound 0.001581 µM): 0.281
relative viability ([3]; first compound 0.005 µM): 0.377
relative viability ([3]; first compound 0.01581 µM): 0.307
relative viability ([4]; first compound 0.0005 µM): 1.11
relative viability ([4]; first compound 0.001581 µM): 1.17
relative viability ([4]; first compound 0.005 µM): 1.36
relative viability ([4]; first compound 0.01581 µM): 1.44
